Test results as given in patent publication US7829555B1, “Drug targeting” (The University of Manchester, priority 1997, dated 2010).

Experiments:
[1] = Pharmacokinetics of the indoloquinone-acetyl salicylic acid conjugate in carrageenin air pouch rats (HPLC of blood, exudate, urine); type: in vivo, male Wistar albino rats; settings: rats with carrageenin air pouch, 20 mg conjugate injected, exudate and urine collected after 2 or 4 hours
Description: Pharmacokinetics of the indoloquinone-acetyl salicylic acid conjugate of Example 5 were studied as follows:
Three groups of male Wistar albino rats (n=5) received sterile air dorsally (day 1). After two days a further 20 ml sterile air were administered. On day 5, 2 ml of a 1% carrageenin in sterile saline was injected directly into the air pouch. Animals were housed in metabolic cages. 100 mg of the indoloquinone-aspirin conjugate of Example 5 were suspended in ethanol (2 ml). 50 mg acetyl salicylic acid was dissolved in 2 ml ethanol. 2 ml ethanol was used as a control. 18 ml sterile water were added to each sample. On day 9, each animal was injected with 4 ml of solution as follows: Group A—20 mg indoloquinone-aspirin conjugate Group B—10 mg acetyl salicylic acid Group C—ethanol (control) The animals were then returned to their cages for periods of either 2 (nos. 1, 2 and 3 from each group) or 4 hours (nos. 4 and 5 from each group). After this time the animals were anaesthetized and blood and exudate collected. Available urine was also collected.

[2] = Reduction initiated release of aspirin, product analysis (HPLC) following γ-radiolysis; type: physicochemical; settings: reduction by (CH3)2C.OH radical; N2O-saturated solution, quinone 100 μM, 2-propanol 8.3M (50%, v/v), pH 7.4
Description: The reduction initiated release of aspirin from the indoloquinone-acetyl salicylic acid conjugate of Example 5 was investigated by product analysis (HPLC) following γ-radiolysis of N2O-saturated solutions containing the quinone (100 μM) and 2-propanol (8.3M, 50%, v/v) at pH 7.4.
The radiation chemical yield (G) of the (CH3)2C.OH radical in N2O-saturated 2-propanol/water mixtures was determined by ferricyanide reduction to be G((CH3)2C.OH)=0.67±0.02 μmol J^−1 in 2-propanol/water (50%, v/v) and 0.72±0.03 μmol J^−1 in 1 M 2-propanol respectively. […] Loss of the parent quinone (G(−Q)=1.63±0.01 μmol J^−1) parallel the formation of the aspirin leaving group (LG) with G(LG)=1.40±0.15 μmol J^−1.
Indolequinone solutions were saturated with N2O gas in gas-tight vials before irradiation in a ^60Co source. […] A dose rate of 6-6.5 Gy min^−1 was used, as determined by Fricke dosimetry and radiation chemical yields were corrected for the absorbed dose in the various alcohol-water mixtures employed.
Product analysis following γ-radiolysis was performed by gradient HPLC separation on a 100 mm×4.6 mm base-deactivated reverse-phase column (Hichrom RPB, Hichrom, Reading, U.K.). […] Detection was at 232 nm using a Waters 486 detector (Watford, U.K.) and concentrations were determined from peak areas using Waters Maxima software.

COC1=CC(=O)c2c(c(COC(=O)c3ccccc3OC(C)=O)c(C)n2C)C1=O [Example 5, 3-(2-Acetoxybenzoyloxy)methyl-1,2-dimethyl-5-methoxyindole-4,7-dione]
Cleavage of conjugate in collected samples (HPLC) [1]: cleaved to liberate acetyl salicylic acid
Formation of the aspirin leaving group, radiation chemical yield G(LG) [2]: 1.40 ± 0.15 µmol/J
Loss of the parent quinone, radiation chemical yield G(−Q) [2]: 1.63 ± 0.01 µmol/J
